Results on seven compounds are retold here after patent US5424311A, “Azaquinoxalines and their use” (Hoeschst Aktiengesellschaft, priority 1992, dated 1995).

In brackets after ≈: the same amount, converted by molar mass.

In assay [1] the target is T1, HIV reverse transcriptase (Human immunodeficiency virus type 1 group M subtype B, UniProt P04585).
T1 construct: The RT enzyme (cloned from HIV in E. coli); purchased HT-Biotechnology LTD, Cambridge, UK; host or cells: E. coli
Put plainly: Inhibition of HIV reverse transcriptase (scintillation proximity assay, SPA). Type of assay: biochemical. The conditions noted are these: RT-SPA; RT enzyme cloned from HIV in E. coli; 60 min (37° C.). The method, then: Investigation of the substances for inhibition of HIV reverse transcriptase
The reverse transcriptase (RT) activity was determined by means of a scintillation proximity assay (SPA). The reagent kit for the RT-SPA was purchased from Amersham/Buchler (Braunschweig). The RT enzyme (cloned from HIV in E. coli) originated from HT-Biotechnology LTD, Cambridge, UK.
The assay was carried out according to the method manual of the manufacturer Amersham--with the following modifications:
Bovine serum albumin was added to the final concentration of 0.5 mg/ml to the assay buffer.
The assay was carried out in Eppendorf reaction vessels with a volume of 100 μl of mixture.
The RT concentrate from the manufacturer (5000 U/ml) was diluted to an activity of 15 U/ml in tris-HCl buffer 20 mM; pH 7.2; 30% glycerol.
The incubation time for the mixtures was 60 min (37° C.).
After stopping the reaction and "developing" with the bead suspension, 130 μl of mixture were transferred into 4.5 ml of tris-HCl buffer, 10 mM; pH 7.4; 0.15 M NaCl and the tritium activity was measured in a β-counter.
For a preliminary test of the inhibitory activity, the substances were dissolved in DMSO (stock solution c=1 mg/ml) and tested diluted 10^-1, 10^-2, 10^-3 etc. in DMSO.
To determine IC50 values, the inhibitor stock solutions were further diluted in tris-HCl buffer, 50 mM, pH 8 and tested in suitable concentrations.
The concentration appertaining to 50% enzyme inhibition was found from the graph of RT activity against the logarithm of the concentration of the particular test substance.

The subject of the next assay is HIV. As to the kind of experiment: Tests on products against HIV in cell culture (T-cell culture assay, giant cell formation in infected lymphocytes). The conditions noted are these: Human immunodeficiency virus 1, 72 h, lowest product concentration at which no giant cells occurred, 37° C., 3 days. Type of assay: cell-based. The method, then:
Tests on products against HIV in cell culture
RPMI pH 6.8 Complete medium additionally contains 20% fetal calf serum and 40 IU/ml recombinant interleukin 2.
Lymphocytes isolated from fresh donor blood by means of ®Ficoll gradient centrifugation are cultivated in complete medium with the addition of 2 μg/ml phytohemagglutinin (Wellcome) at 37° C. under 5% CO2 for 36 h. The cells are, after addition of 10% DMSO, frozen at a cell density of 5×10^6 and stored in liquid nitrogen. For the test, the cells are thawed, washed in RPMI medium and cultivated in complete medium for 3-4 days.
The test products were dissolved in DMSO and adjusted with complete medium to a concentration of 1 mg/ml. 0.4 ml of medium was placed in 24-well dishes. After addition of 0.1 ml of the dissolved product to the upper row of the dish, a geometric dilution series was produced by transferring 0.1 ml each time. Product-free controls always received 0.4 ml of complete medium with 0.5% DMSO. Lymphocyte cultures with a cell count of 5×10^5 cells/ml were infected by adding 1/50 of the volume of supernatant from HIV-infected lymphocyte cultures. The titer of these culture supernatants was determined by endpoint dilution to be 1-5×10^6 infectious units/mi. After incubation at 37° C. for 30 min, the infected lymphocytes were spun down and taken up again in the same volume of medium. 0.6 ml portions of this cell suspension were placed in all the wells of the assay plate. The mixtures were incubated at 37° C. for 3 days.
The infected cell cultures were examined under the microscope for the presence of giant cells which indicate active virus replication in the culture. The lowest product concentration at which no giant cells occurred was determined as the HIV inhibitory concentration. As a control, the supernatants from the culture plates were examined for the presence of HIV antigen with the aid of an HIV antigen assay in accordance with the information from the manufacturer (Organon).

`C=C(C)OC(=O)N1c2nc(C)ccc2NC(=S)C1C` (racemic) [Example 20, (3RS)-4-(Isopropenyloxycarbonyl)-3,6-dimethyl-3,4-dihydro-1,4,5-triazanaphthalene-2(1H)-thione] showed an IC50 in assay [1] of 3.61 to 36.1 µM.
Compound `C[C@@H]1Nc2nc(Cl)ccc2NC1=O` [Example 2, (3S)-6-Chloro-3-methyl-3,4-dihydro-1,4,5-triazanaphthalen-2(1H)-one] yielded an IC50 in assay [1] of 5.06 to 50.6 µM. Moreover, the MIC in the assay on HIV is greater than 0.8 µg/mL.
On the same counts, the results for `CC(C)=CCN1c2nc(Cl)ccc2NC(=O)[C@@H]1C` [Example 8, (3S)-6-Chloro-3-methyl-4-(3-methyl-2-butenyl)-3,4-dihydro-1,4,5-triazanaphthalen-2(1H)-one] are 0.376 to 3.76 µM and 0.08 µg/mL (≈ 0.301 µM).
As to `C=C(C)OC(=O)N1C(=O)[C@H](C)N(C(=O)OC(=C)C)c2nc(Cl)ccc21` [Example 10, (3S)-6-Chloro-1,4-his(isopropenyloxycarbonyl)-3-methyl-3,4-dihydro-1,4,5-triazanaphthalen-2(1H)-one], the 50% inhibitory concentration (IC50) in assay [1] is 0.273 to 2.73 µM. The same compound had an MIC in the assay with HIV of 1 µg/mL (≈ 2.73 µM).
Consider `C[C@H]1C(=O)Nc2ccc(Cl)nc2N1Cc1ccccn1` [Example 11, (3S)-6-Chloro-3-methyl-4-(2-picolyl)-3,4-dihydro-1,4,5-triazanaphthalen-2(1H)-one], for which the half-inhibitory concentration (IC50) in assay [1] lay in the range of 0.346 to 3.46 µM. In the assay on HIV, this compound gave an MIC of 0.2 µg/mL (≈ 0.693 µM).
The compound `CSCC1C(=S)Nc2cccnc2N1C(=O)OC(C)C` (stereo not drawn) [Example 37, 4-Isopropoxycarbonyl-3-methylthiomethyl-3,4-dihydro-1,4,5-triazanaphthalene-2(1H)-thione] yielded an IC50 in assay [1] of 0.321 to 3.21 µM. The MIC in the assay on HIV is greater than 1 µg/mL.
In turn, `CC(C)OC(=O)N1c2ncccc2NC(=O)C1CS(C)(=O)=O` (stereo not drawn) [Example 41, 3-Methylsulfonylmethyl-4-isopropoxycarbonyl-3,4-dihydro-1,4,5-triazanaphthalen-2(1H)-one] came in with an MIC against HIV greater than 2 µg/mL.
